We go through four compounds from paper PMC6547740, “Potent and specific MTH1 inhibitors targeting gastric cancer” (Cell Death & Disease, 2019).

Data set [1] has as its system MGC-803 cells. Put plainly: Colony formation assay, MGC-803. Format: cell-based, human. Conditions: MGC-803, 7 days treatment, compared with DMSO or MI-929. On the procedure:
(§1) The day before treatment, cells were seeded into six-well plates at a concentration of 1 × 10^3 cells per well, and then the media were replaced with fresh media containing serial concentrations of candidate compounds. After 7 days of treatment, the cells were fixed with 75% ethanol, stained with 0.1% crystal violet solution and captured by the microscopy (Leica). After that, the crystal violet crystals were dissolved by adding methanol. The absorbance at 595 nm was measured by a BioTek micro plate reader. In the end, the data were analyzed using the GraphPad Prism 5 software.

Data set [2] concerns HGC-27 cells. Put plainly: Colony formation assay, HGC-27. Type of data set: cell-based, human. Conditions: HGC-27, 7 days treatment, compared with DMSO or MI-929. Here is the method:
as §1

Data set [3] concerns the target T1, MTH1 (Homo sapiens, UniProt P36639). Put plainly: MTH1 recombinant protein activity / inhibitor screening (malachite green). Format: biochemical. On the set-up: His-tag; made in house; host or cells: E. coli BL21(DE3). Conditions: 5 nM recombinant MTH1, dGTP substrate, absorbance 630 nm; read-out: IC50 (MTH1 inhibition). On the procedure: On the basis of the ability of MTH1 in converting dGTP to dGMP and pyrophosphate, and the latter can then be hydrolyzed to […] by inorganic pyrophosphatase, the MTH1 activity was designed to measure the product of […], after its reaction with malachite green and ammonium molybdate(Fig. 2l), the green associated complex was measured at 630 nm by PerkinElmer Envision microplate reader.
Firstly, the assay buffer (100 mM Tris-acetate at pH 8.0, 40 mM NaCl, 10 mM Mg-acetate, 0.005% Tween 20 and 1 mM DTT) was added into a 96-well plate. Then, 5 nM recombinant human MTH1, […] dGTP and 0.2U/ml […] were added in sequence. After 60 min reaction, the mixture of 0.45 mg/mL malachite green and 4.2% ammonium molybdate in proportion of 3:1 were added. Then, the plates were incubated and shaken at room temperature for another 60 min. The absorbance was measured at 630 nm using the PerkinElmer Envision micro plate reader.

The target in data set [4] is T1, MTH1. Description: Cellular thermal shift assay (CETSA), MTH1. Format: binding. On the set-up: endogenous in cells; host or cells: MGC-803 (human gastric cancer cell line). Particulars: MGC-803 cells, 50 µM compound, heated 10 min from 43 to 61 °C, western blot. On the procedure:
Cellular thermal shift assay (CETSA), also known as the target engagement assay was one-way to detect the intracellular interaction ability of compounds with its specific target. Firstly, cells were seeded into T75 culture flasks and cultured overnight. Then, the cells were treated with cell media containing 1‰ DMSO as blank control and candidate compounds for 3–5 h. Next, the cells were collected by centrifugation and resuspended by PBS, then the cells were aliquoted into 7 PCR tubes and heated using PCR instrument for 10 min from 43 to 61 °C. After that, cells were lysed using liquid nitrogen and three repeated cycles of freeze-thawing. Then, samples were centrifuged at 12,000 × g for 20 min at 4 °C. Supernatants were denatured at 100 °C for 10 min and kept at −20 °C until Western Blot analysis.
In general terms: Immunoblotting shows a protein as a band on a membrane.

The subject of another data set is L02 cells. Put plainly: MTT cell viability, L02. Conditions: Homo sapiens, normal liver cell line, 72 h. Type of data set: cell-based. Here is the method: (§2) The cell viability was determined by 3-(4,5-dimethylthiazol-2-yl)-2,5-diphenyltetrazolium bromide (MTT) assay, according to the manufacturer’s instructions. 1 day before treatment, cells were seeded into 96-well plates at a concentration of 2–5 × 10^3 cells per well, followed by treatment with fresh medium containing serial dilutions of candidate compounds for 48 or 72 h, 20 μL of MTT solution (5 mg/mL in PBS) was then added to each well. After treatment, the plates were incubated at 37 °C for another 4 h. Subsequently, the MTT solution was removed and 150 μL of DMSO was added to each well for 10 min, and then the plates were shaken to dissolve the dark blue crystal (formazan), the absorbance was detected at 570 nm using a BioTek microplate reader. The data were analyzed using SPSS 20 software.

Another data set relates to HL-7702 cells. Put plainly: MTT cell viability, HL-7702. Conditions: Homo sapiens, L02, normal liver cell line, 72 h. Format: cell-based. Here is the method:
as §2

Another data set has as its system Het-1A cells. Put plainly: MTT cell viability, Het-1A. Type of data set: cell-based. Conditions: Homo sapiens, normal esophageal epithelial cell line, 72 h. Here is the method: as §2
In another data set the test system is GES-1 cells. Description: MTT cell viability, GES-1. Type of data set: cell-based. Conditions: Homo sapiens, GES1, normal gastric epithelial cell line, 72 h. On the procedure: as §2
In a further data set the test system is SMMC-7721 cells. Put plainly: MTT cell viability, SMMC-7721. Format: cell-based. Particulars: Homo sapiens, liver cancer cell line, 72 h. Here is the method:
as §2

A further data set relates to ZIP177 cells. Description: MTT cell viability, ZIP177. Format: cell-based. Particulars: Homo sapiens, liver cancer cell line, 72 h. On the procedure:
as §2

The test system of a further data set is HepG2 cells. Description: MTT cell viability, HepG2. Type of data set: cell-based. Conditions: Homo sapiens, liver cancer cell line, 72 h. On the procedure: as §2
In the next data set the test system is EC109 cells. Description: MTT cell viability, EC109. Format: cell-based. Conditions: Homo sapiens, ECa-109, esophageal cancer cell line, 72 h. Here is the method: as §2
The next data set relates to EC9706 cells. Description: MTT cell viability, EC9706. Particulars: Homo sapiens, esophageal cancer cell line, 72 h. Format: cell-based. Here is the method: as §2
The next data set concerns KYSE-450 cells. Put plainly: MTT cell viability, KYSE-450. Conditions: Homo sapiens, esophageal cancer cell line, 72 h. Format: cell-based. Here is the method:
as §2

In another data set the test system is TE-1 cells. Put plainly: MTT cell viability, TE-1. Type of data set: cell-based. Conditions: Homo sapiens, 72 h. Here is the method: as §2
Data set [5] has as its system MGC-803 cells. Put plainly: MTT cell viability, MGC-803. Particulars: Homo sapiens, gastric cancer cell line, 72 h. Type of data set: cell-based. Here is the method:
as §2

The subject of data set [6] is HGC-27 cells. Description: MTT cell viability, HGC-27. Type of data set: cell-based. Conditions: Homo sapiens, gastric cancer cell line, 72 h. Here is the method: as §2
In the next data set the test system is SGC-7901 cells. Description: MTT cell viability, SGC-7901. Format: cell-based. Conditions: Homo sapiens, gastric cancer cell line, 72 h. Here is the method: as §2
The test system of another data set is MKN45 cells. Description: MTT cell viability, MKN45. Format: cell-based. Particulars: Homo sapiens, MKN-45, gastric cancer cell line, 72 h. Here is the method: as §2
A further data set has as its system pc9 cells. Description: MTT cell viability, pc9. Type of data set: cell-based. Particulars: Homo sapiens, PC-9, 72 h. Here is the method: as §2
The next data set has as its system H1975 cells. Put plainly: MTT cell viability, H1975. Type of data set: cell-based. Particulars: Homo sapiens, NCI-H1975, 72 h. Here is the method:
as §2

For the next data set, the system named is MCF-7 cells. Description: MTT cell viability, MCF-7. Format: cell-based. Particulars: Homo sapiens, MCF7, breast cancer cell line, 72 h. On the procedure:
as §2

Another data set relates to B16-F10 cells. Description: MTT cell viability, B16-F10. Format: cell-based. Particulars: Mus musculus, 72 h. On the procedure: as §2

As to `C[C@H](Oc1cc(-c2cnn(C3CCNCC3)c2)cnc1N)c1c(Cl)ccc(F)c1Cl` [(S)-crizotinib], the colony formation result in the data set on MGC-803 cells [1] is “smaller and fewer colonies”; in the data set on HGC-27 cells [2], “smaller and fewer colonies”.
Broadly, the melting point is the temperature, or range, at which the solid turns liquid. By IC50 is commonly meant the concentration that inhibits the measured activity by half. Compound `Cc1ccc(Nc2nc(SCc3cn(CC(=O)NC(=O)Nc4ccccn4)nn3)nc(-c3ccc(Br)cc3)c2C#N)cc1` [MI-401, 2-(4-((4-(4-bromophenyl)-5-cyano-6-(p-tolylamino)pyrimidin-2-yl)thiomethyl)-1H-1,2,3-triazol-1-yl)-N-(pyridin-2-ylcarbamoyl)acetamide] returned a melting point of 155 to 156 °C. In addition, the IC50 on MTH1 [3] was found to be 0.4613 ± 0.00267 µM. For the same compound, on MTH1 [4], the “temperature of MTH1 degradation” value was 49 °C.
For the compound `COc1ccccc1NC(=O)NC(=O)CSC(=S)N1CCCC1` [MI-929], the half-inhibitory concentration (IC50) in the data set on L02 cells, with HL-7702 cells, in the data set on Het-1A cells, in the data set on GES-1 cells, in the data set on SMMC-7721 cells and in the data set with ZIP177 cells was greater than 50 µM in each case. Besides, the IC50 with HepG2 cells, in the data set with EC109 cells, in the data set with EC9706 cells, with KYSE-450 cells, in the data set on TE-1 cells and in the data set with MGC-803 cells [5] was greater than 50 µM throughout. For the same compound, the IC50 with HGC-27 cells [6], in the data set on SGC-7901 cells, in the data set with MKN45 cells, with pc9 cells, in the data set on H1975 cells and in the data set on MCF-7 cells was greater than 50 µM in each case. Besides, the IC50 in the data set with B16-F10 cells and at MTH1 [3] was greater than 50 µM throughout. Besides, the “temperature of MTH1 degradation” value at MTH1 [4] is 49 °C.
With `Nc1nc(NC2CC2)cc(-c2cccc(Cl)c2Cl)n1` [TH588], the colony formation result in the data set with MGC-803 cells [1] was “smaller and fewer colonies”; in the data set on HGC-27 cells [2], “smaller and fewer colonies”.
